From patent US20250186388A1, “ACTIVE SUBSTANCES FOR MEDICAL USE” (INFLAMED PHARMA GMBH, priority 2020, published 2025)
Where a name gives a salt, the structure may show the parent alone.

Legend:
[1] = Solubility in octanol (content in the organic phase by UV/VIS spectroscopy, pH values); type: physicochemical; conditions: for pH value: solubility test in octanol
Experimental: Solubility tests were carried out in octanol and the content in the organic phase was investigated by UV/VIS spectroscopy and the pH values.

[2] = system: rabbits incubated with E. coli; conditions: cited from earlier work
[3] = rabbits incubated with E. coli, lidocaine administration

Content (solubility in octanol, content in the organic phase) [1] | pH value [1] | Compound | incidence of pulmonary oedema ([2]; compared to a comparison group) | albumin content in the bronchoalveolar lavage ([2]; lidocaine group) | leucocytes in the bronchoalveolar lavage ([2]; lidocaine group) | haemorrhages, alveolar septal thickening and number of inflammatory cells in the alveolar space ([2]; rabbit, in vivo) | lung mechanics (compliance, resistance) [2, 3] | paO2 [2, 3]
completely dissolved (100%) | 8.5 | CCN(CC)CCOC(=O)c1ccc(N)cc1 [Procaine, 4-aminobenzoic acid-2-(N,N-diethylamino)ethyl ester] | – | – | – | – | – | –
8% | 4.5 | CCN(CC)CCOC(=O)c1ccc(N)cc1 [Procaine hydrochloride] | – | – | – | – | – | –
– | – | CCN(CC)CC(=O)Nc1c(C)cccc1C [lidocaine] | reduced incidence | lower | fewer | visibly reduced | improved | increase
